Like-named read-outs stand apart in the source and are kept apart here.
What was measured:
MYCN G4 DNA [1] = assay: Surface plasmon resonance (SPR) with immobilized biotinylated MYCN G4 DNA; assay type: binding, human; details: for positive binding in SPR (SNR>3): single concentration 100 μM compound
How it was run: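 Biotinylated MYCN G4 DNA, annealed at 95 °C, was captured on a streptavidin-coated CM5 chip; running buffer was 10 mM Tris pH 7.0, 100 mM KCl, 0.005% Tween 20, 5% DMSO. Compound series were injected at 25 μL/min (120 s association, 200 s dissociation), reference-subtracted, and KD was fitted with a Langmuir 1:1 model.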

MYCN G4 DNA [2] = assay: Circular dichroism (CD) thermal melting assay of MYCN G4; assay type: binding, human; details: for increase of Tm (ΔTm) of MYCN G4: 20 μM compound, 10 mM Tris pH 7.0, 5 mM KCl
Description: For thermal melt assay, MYCN oligonucleotides were prepared in a low KCl buffer (10 mM Tris, pH7.0, 5 mM KCl) at 5 μM concentration. To test the stabilization effect, G4 samples were incubated with and without 20 μM compound (final solution containing 5% DMSO). Then a total of 300 μL solution was added in a cuvette and heated from 20° C. to 95° C. in a CD spectrometer with an interval of 1° C. To calculate the melting temperature (Tm), the peak of CD spectrum at 263 nm was tracked, and […] vs temperature was plotted and fitted using a nonlinear sigmoidal dose-response model with a variable slope in GraphPad Prism 8 software. The shifting of melting temperature (ΔTm) was calculated using Tm (compound)−Tm (DMSO).
For CD melting assay, MYCN oligonucleotides were prepared in KCl buffer (10 mM sodium phosphate, pH7.0, 5 mM KCl) at 5 μM concentration. To test the stabilization effect of the compounds, MYCN G4 DNA samples were mixed with/without the compound (final solution containing 5% DMSO) at designed concentration. Then a total of 300 μL solution was added in a cuvette and heated from 20 to 80° C. in a CD spectrometer with an interval of 1° C. To calculate the melting temperature (Tm), the peak of CD spectrum at 263 nm was tracked, and […] vs temperature was plotted and fitted using a nonlinear sigmoidal dose-response model with a variable slope in GraphPad Prism 8 software.

[3] = MYCN G4, Langmuir 1:1 model, read-out: SPR KD

SMILES	Kd (MYCN G4 DNA [1]; MYCN hairpin G4, SPR titration, read-out: KD by SPR) [µM]	ΔTm of MYCN G4 (MYCN G4 DNA [2]; 10 mM sodium phosphate pH 7.0, 5 mM KCl, 5 μM DNA) [°C]	Kd (MYCN G4 DNA [1]; [3]) [µM]	positive binding in SPR (SNR>3) (MYCN G4 DNA [1])	increase of Tm (ΔTm) of MYCN G4 (MYCN G4 DNA [2]) [°C]	ΔTm of MYCN G4 at 40 μM (MYCN G4 DNA [2]; 40 μM MY-1, versus 20 μM)
COc1ccc(-c2noc(-c3ccc(NCCCNc4c5ccc(Cl)cc5nc5ccc(OC)cc45)nn3)n2)cc1 [B33, N^1-(6-chloro-2-methoxyacridin-9-yl)-N^3-(6-(3-(4-methoxyphenyl)-1,2,4-oxadiazol-5-yl)pyridazin-3-yl)propane-1,3-diamine]	0.07 ± 0.013	6.4				
CCCN1CCN(c2nnc(-n3cccc3CNCCCN3CCCCCC3)s2)CC1 [Compound 1]			11.7 ± 2.6	hits	4.7±0.7	
COc1ccc(-c2noc(-c3ccc(NCCCN4CCCC4)nn3)n2)cc1 [MY-1, 6-(3-(4-methoxyphenyl)-1,2,4-oxadiazol-5-yl)-N-(3-(pyrrolidin-1-yl)propyl)pyridazin-3-amine]			3.6 ± 2.4	hits	3.7±0.5	not significantly increased
COc1ccc(-c2noc(-c3ccc(NCCCN4CCCCCC4)nn3)n2)cc1 [MY-8, N-(3-(azepan-1-yl)propyl)-6-(3-(4-methoxyphenyl)-1,2,4-oxadiazol-5-yl)pyridazin-3-amine]			1.5 ± 0.3			
